Experimental data published in PubChem BioAssay AID1963828 (Molecular Pharmacology Branch, DTP, NCI, 2024).
Where “and” joins values, the source holds several entries; their conditions need not be identical. Identical values can stand only once.

Tested on: 991263-137-R1-J2-PDC complex spheroid viability
Experiment: Anticancer human tumor 991263-137-R1-J2-PDC patient-derived colon adenocarcinoma cell line growth inhibition [POLQ]
Conditions: for viability, T/C: stronger effect = lower value
Description: Multicellular complex tumor spheroid response to Polymerase (POL) inhibitors (novobiocin, ART-558, RP6685) in combination with a variety of drugs and investigational agents in selected tumor cell lines
The POL inhibitors (novobiocin, ART-558, and RP6685) were evaluated both individually and in combination with standard of care and investigational anticancer small molecules within a complex spheroid model of solid tumors. . Complex spheroids include a stromal component modeled by human endothelial cells (HUVEC) and fibroblasts modeled by human mesenchymal stem cells (MSCs). The concentration ranges selected for each drug and investigational agent were based upon clinically achievable concentrations if the clinical Cmax of the agent was known.
Compounds. The drugs and investigational agents: novobiocin (NSC847541), ART-558 (NSC835418), RP-6685 (NSC848927), peposertib (NSC802822), ceralasertib (NSC780249), elimusertib (NSC800525), camonsertib (NSC841442), AZD-1390 (NSC803789), olaparib (NSC753686), talazoparib (NSC767125), rucaparib (NSC756644), sotorasib (NSC818433), MRTX-1133 (NSC836407), SN-38 (NSC673596), topotecan (NSC609699), epotoside (NSC141540), doxorubicin (NSC123127), gemcitabine (NSC613327), 5-fluorouracil (NSC19893), paclitaxel (NSC125973), vemurafenib (NSC761431), MSA-2 (NSC828583), SN-011 (NSC837082), adavosertib (NSC754352), prexasertib (NSC758257), carboplatin (NSC241240) and oxaliplatin (NSC266046), were obtained from the National Cancer Institute (NCI) Developmental Therapeutics Program Chemical Repository (21). The FDA-approved anticancer drug set is available from the Developmental Therapeutics Program at https://dtp.cancer.gov/organization/dscb/obtaining/. […] The stock solutions were prepared in dimethyl sulfoxide (DMSO, Sigma-Aldrich, St. Louis, MO, cat. D2650), except for the platinum compounds which were prepared in saline (Quality Biological, Gaithersburg, MD, cat. 114-055-101), at 800-fold the tested concentration and stored at -70 degrees C prior to their use. All drugs and investigational agents were tested over a range starting from a high concentration at or near the clinical Cmax and decreasing in half-log increments. If the clinical Cmax for an agent had not been determined, the highest concentration tested was 10 microM, except for SN-38, which was tested at a high concentration of 1 microM.
Cell Culture. All cells were maintained in an incubator at 37 degrees C and 5% CO2 with 95% humidity. The PDC lines were cultured according to standard operating procedures established by the NCI PDMR (https://pdmr.cancer.gov). Table 3 of the manuscript, lists the cell lines along with the number of the three cell types plated to form the mct-spheroids and media for tumor cell growth. After thawing, all PDC lines, except 997537-175-T-J1-PDC and 415267-285-R-J2-PDC, were cultured in Matrigel-coated flasks prepared with a working solution of 1X Ham's F-12 nutrient mix, without supplementation (Thermo Fisher Scientific, cat. 11765054), 100 U/mL penicillin-streptomycin (Thermo Fisher Scientific, cat. 15140122), and 2.5% Matrigel (Corning Inc., Corning, NY, cat. 354248) for the first three passages. The two PDC lines 997537-175-T-J1-PDC and 415267-285-R-J2-PDC were cultured on uncoated flasks. The 857933-349-R-J2-PDC line was cultured in 6C/Colon 1B media containing advanced DMEM/F-12 (Thermo Fisher Scientific, cat. 12634028), 10 mM HEPES (Thermo Fisher Scientific, cat. 15630080), 1X GlutaMAX supplement (Thermo Fisher Scientific, cat. 35050061), 0.1 mg/mL primocin (InvivoGen, San Diego, CA, cat. ant-pm-2), 10% defined fetal bovine serum, heat inactivated (HyClone Laboratories Inc., Logan, UT, cat. SH30070.03HI), 50% L-WRN conditioned media (ATCC, cat. CRL-3276), 1.25 mM N-Acetyl-L-cysteine (Sigma-Aldrich, cat. A9165), 10 mM nicotinamide (Sigma-Aldrich, cat. N0636), 1X B-27 supplement (Thermo Fisher Scientific, cat. 17504044), 1X N-2 supplement (Thermo Fisher Scientific, cat. […]
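Note: spheroids exposed to compounds for 7 days before readout.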
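Throughout, for viability, T/C: 100% = DMSO vehicle control viability.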

## CCc1cc2c(N3CCc4c(cc(Cn5ccnc5)cc4-c4cn(C)nc4C(F)(F)F)C3=O)ccnc2c(OC)n1 + COC1C(OC(N)=O)C(O)C(Oc2ccc3c(O)c(NC(=O)c4ccc(O)c(CC=C(C)C)c4)c(=O)oc3c2C)OC1(C)C
Curve of first compound, second compound 0.0316 µM
  IC50: > 10000 nM
Curve of first compound, second compound 0.1 µM
  IC50: > 10000 nM
Curve of first compound, second compound 0.316 µM
  IC50: > 10000 nM
Curve of first compound, second compound 1 µM
  IC50: > 10000 nM
Curve of first compound, second compound 3.16 µM
  IC50: > 10000 nM
Curve of first compound, second compound 10 µM
  IC50: > 10000 nM
Second compound 0.0316 µM, first compound 0.0316 µM
  viability, T/C: 99.5%
Second compound 0.0316 µM, first compound 0.1 µM
  viability, T/C: 104%
Second compound 0.0316 µM, first compound 0.316 µM
  viability, T/C: 110%
Second compound 0.0316 µM, first compound 1 µM
  viability, T/C: 87.6%
Second compound 0.0316 µM, first compound 3.16 µM
  viability, T/C: 102%
Second compound 0.0316 µM, first compound 10 µM
  viability, T/C: 86.7%
Second compound 0.1 µM, first compound 0.0316 µM
  viability, T/C: 104%
Second compound 0.1 µM, first compound 0.1 µM
  viability, T/C: 110%
Second compound 0.1 µM, first compound 0.316 µM
  viability, T/C: 87.4%
Second compound 0.1 µM, first compound 1 µM
  viability, T/C: 100%
Second compound 0.1 µM, first compound 3.16 µM
  viability, T/C: 90.8%
Second compound 0.1 µM, first compound 10 µM
  viability, T/C: 81%
Second compound 0.316 µM, first compound 0.0316 µM
  viability, T/C: 105%
Second compound 0.316 µM, first compound 0.1 µM
  viability, T/C: 108%
Second compound 0.316 µM, first compound 0.316 µM
  viability, T/C: 97.1%
Second compound 0.316 µM, first compound 1 µM
  viability, T/C: 104%
Second compound 0.316 µM, first compound 3.16 µM
  viability, T/C: 95.4%
Second compound 0.316 µM, first compound 10 µM
  viability, T/C: 99.9%
Second compound 1 µM, first compound 0.0316 µM
  viability, T/C: 101%
Second compound 1 µM, first compound 0.1 µM
  viability, T/C: 107%
Second compound 1 µM, first compound 0.316 µM
  viability, T/C: 93.9%
Second compound 1 µM, first compound 1 µM
  viability, T/C: 86.3%
Second compound 1 µM, first compound 3.16 µM
  viability, T/C: 102%
Second compound 1 µM, first compound 10 µM
  viability, T/C: 90.7%
Second compound 3.16 µM, first compound 0.0316 µM
  viability, T/C: 99.2%
Second compound 3.16 µM, first compound 0.1 µM
  viability, T/C: 122%
Second compound 3.16 µM, first compound 0.316 µM
  viability, T/C: 113%
Second compound 3.16 µM, first compound 1 µM
  viability, T/C: 96.4%
Second compound 3.16 µM, first compound 3.16 µM
  viability, T/C: 106%
Second compound 3.16 µM, first compound 10 µM
  viability, T/C: 107%
Second compound 10 µM, first compound 0.0316 µM
  viability, T/C: 113%
Second compound 10 µM, first compound 0.1 µM
  viability, T/C: 106%
Second compound 10 µM, first compound 0.316 µM
  viability, T/C: 108%
Second compound 10 µM, first compound 1 µM
  viability, T/C: 109%
Second compound 10 µM, first compound 3.16 µM
  viability, T/C: 101%
Second compound 10 µM, first compound 10 µM
  viability, T/C: 91.3%

## CCc1c2c(nc3ccc(O)cc13)-c1cc3c(c(=O)n1C2)COC(=O)[C@]3(O)CC
Compound 0.00316 µM
  viability, T/C: 88.8% and 83.4% and 108%
Compound 0.01 µM
  viability, T/C: 80% and 74.9% and 74%
Compound 0.0316 µM
  viability, T/C: 63% and 64.4% and 51.9%
Compound 0.1 µM
  viability, T/C: 49.8% and 45.2% and 54.4%
Compound 0.316 µM
  viability, T/C: 37.3% and 37.2% and 36.9%
Compound 1 µM
  viability, T/C: 25.2% and 26.9% and 20.9%
Curve of compound
  IC50: 99 nM and 83.3 nM and 93.9 nM

## COc1cccc2c1C(=O)c1c(O)c3c(c(O)c1C2=O)CC(O)(C(=O)CO)CC3OC1CC(N)C(O)C(C)O1 (stereo unspecified)
Compound 0.0316 µM
  viability, T/C: 103% and 95.2% and 99.9%
Compound 0.1 µM
  viability, T/C: 106% and 91% and 88.5%
Compound 0.316 µM
  viability, T/C: 77% and 85.2% (2×)
Compound 1 µM
  viability, T/C: 51% and 54.2% and 48.5%
Compound 3.16 µM
  viability, T/C: 29.6% and 40.6% and 40.8%
Compound 10 µM
  viability, T/C: 41.7% and 36.5% and 38.3%
Curve of compound
  IC50: 903 nM and 1420 nM and 972 nM
